Test results as given in ChEMBL document CHEMBL5724914, “Linking interpersonal differences in gut microbiota composition and drug biotransformation activity” (2024).

Tests used:
[1] = (§1) The drug is tested on Z-024 corresponding to pig gut metagenome with ENA study accession number: PRJEB37062 and ENA sample accession number: ERS12561823 for biotransformation under anaerobic condition. The drug concentrations were measured over 9 timepoints collected between 0 and 24 hours of incubation by liquid-chromatography-coupled mass spectrometry (LC–MS); settings: 2 µM
[2] = as §1, with “Z-019” for “Z-024”, “rat” for “pig”, “ERS12561818” for “ERS12561823”; settings: 2 µM
[3] = as §1, with “Z-017” for “Z-024”, “mouse” for “pig”, “ERS12561816” for “ERS12561823”; settings: 2 µM
[4] = as §1, with “Z-016” for “Z-024”, “mouse” for “pig”, “ERS12561815” for “ERS12561823”; settings: 2 µM
[5] = as §1, with “Z-007” for “Z-024”, “rat” for “pig”, “ERS12561807” for “ERS12561823”; settings: 2 µM
[6] = as §1, with “WLS-170” for “Z-024”, “human” for “pig”, “ERS12561762” for “ERS12561823”; settings: 2 µM
[7] = as §1, with “WLS-073” for “Z-024”, “human” for “pig”, “ERS12561749” for “ERS12561823”; settings: 2 µM
[8] = as §1, with “WLS-069” for “Z-024”, “human” for “pig”, “ERS12561748” for “ERS12561823”; settings: 2 µM
[9] = as §1, with “WLS-052” for “Z-024”, “human” for “pig”, “ERS12561747” for “ERS12561823”; settings: 2 µM
[10] = human gut metagenome, 24 h, 2 µM
[11] = human gut metagenome, 24 h, 2 µM; remark: listed apart in the source
[12] = human gut metagenome, 24 h, 2 µM; remark: listed apart in the source
[13] = human gut metagenome, 24 h, 2 µM; remark: listed apart in the source
[14] = human gut metagenome, 24 h, 2 µM; remark: listed apart in the source
[15] = human gut metagenome, 24 h, 2 µM; remark: listed apart in the source
[16] = human gut metagenome, 24 h, 2 µM; remark: listed apart in the source
[17] = human gut metagenome, 24 h, 2 µM; remark: listed apart in the source
[18] = human gut metagenome, 24 h, 2 µM; remark: listed apart in the source
[19] = human gut metagenome, 24 h, 2 µM; remark: listed apart in the source
[20] = human gut metagenome, 24 h, 2 µM; remark: listed apart in the source
Further: call rule not given here.

| SMILES | Bacterial Biotransformation [1] | Bacterial Biotransformation [2] | Bacterial Biotransformation [3] | Bacterial Biotransformation [4] | Bacterial Biotransformation [5] | Bacterial Biotransformation [6] | Bacterial Biotransformation [7] | Bacterial Biotransformation [8] | Bacterial Biotransformation [9] | Bacterial Biotransformation [10] | Bacterial Biotransformation [11] | Bacterial Biotransformation [12] | Bacterial Biotransformation [13] | Bacterial Biotransformation [14] | Bacterial Biotransformation [15] | Bacterial Biotransformation [16] | Bacterial Biotransformation [17] | Bacterial Biotransformation [18] | Bacterial Biotransformation [19] | Bacterial Biotransformation [20] |
| --- | --- | --- | --- | --- | --- | --- | --- | --- | --- | --- | --- | --- | --- | --- | --- | --- | --- | --- | --- | --- |
| COc1ccc(/C=C/C(=O)Nc2ccccc2C(=O)O)cc1OC | Compound metabolized | Compound NOT metabolized | Compound NOT metabolized | Compound metabolized | Compound NOT metabolized | Compound NOT metabolized | Compound metabolized | Compound metabolized | Compound metabolized | Compound NOT metabolized | Compound NOT metabolized | Compound NOT metabolized | Compound NOT metabolized | Compound NOT metabolized | Compound NOT metabolized | Compound NOT metabolized | Compound metabolized | Compound metabolized | Compound NOT metabolized | – |
| CC(C)C[C@H]1C(=O)N2CCC[C@H]2[C@]2(O)O[C@](NC(=O)[C@@H]3C=C4c5cccc6[nH]c(Br)c(c56)C[C@H]4N(C)C3)(C(C)C)C(=O)N12.CS(=O)(=O)O [BROMOCRIPTINE MESYLATE] | Compound metabolized | Compound metabolized | Compound metabolized | Compound metabolized | Compound metabolized | Compound metabolized | Compound metabolized | Compound metabolized | Compound metabolized | Compound metabolized | Compound metabolized | Compound metabolized | Compound NOT metabolized | Compound metabolized | Compound NOT metabolized | Compound metabolized | Compound NOT metabolized | Compound NOT metabolized | – | – |
| COC1=C(OC)C(=O)C(CCCCCCCCCCO)=C(C)C1=O [IDEBENONE] | Compound metabolized | Compound NOT metabolized | Compound NOT metabolized | Compound metabolized | Compound metabolized | Compound NOT metabolized | Compound metabolized | Compound metabolized | Compound metabolized | – | – | – | Compound metabolized | Compound NOT metabolized | Compound NOT metabolized | Compound metabolized | – | – | Compound NOT metabolized | Compound metabolized |
| CC(=O)O[C@H]1C(=O)[C@@]2(C)[C@H]([C@H](OC(=O)c3ccccc3)[C@]3(O)C[C@H](OC(=O)[C@H](O)[C@@H](NC(=O)c4ccccc4)c4ccccc4)C(C)=C1C3(C)C)[C@]1(OC(C)=O)CO[C@@H]1C[C@@H]2O [PACLITAXEL] | Compound metabolized | Compound NOT metabolized | Compound NOT metabolized | Compound metabolized | Compound NOT metabolized | Compound NOT metabolized | Compound metabolized | Compound metabolized | Compound metabolized | Compound NOT metabolized | Compound NOT metabolized | Compound NOT metabolized | Compound NOT metabolized | Compound NOT metabolized | Compound NOT metabolized | Compound NOT metabolized | Compound metabolized | Compound metabolized | Compound NOT metabolized | – |
| CC(=O)OCC(=O)NCCCOc1cccc(CN2CCCCC2)c1 [ROXATIDINE ACETATE] | Compound metabolized | Compound NOT metabolized | Compound metabolized | Compound metabolized | Compound metabolized | – | Compound metabolized | – | Compound metabolized | Compound metabolized | Compound metabolized | Compound metabolized | Compound metabolized | Compound metabolized | Compound NOT metabolized | Compound metabolized | Compound metabolized | Compound metabolized | Compound metabolized | Compound metabolized |
| CN[C@H]1CC[C@@H](c2ccc(Cl)c(Cl)c2)c2ccccc21 [SERTRALINE] | Compound metabolized | Compound NOT metabolized | Compound metabolized | Compound NOT metabolized | Compound NOT metabolized | Compound metabolized | – | Compound metabolized | Compound metabolized | Compound metabolized | Compound NOT metabolized | Compound NOT metabolized | Compound NOT metabolized | Compound metabolized | Compound NOT metabolized | Compound NOT metabolized | Compound metabolized | Compound metabolized | Compound NOT metabolized | Compound metabolized |
| CCCCCNC(=N)N/N=C/c1c[nH]c2ccc(OC)cc12.O=C(O)/C=C\C(=O)O [TEGASEROD MALEATE] | Compound metabolized | Compound NOT metabolized | Compound NOT metabolized | Compound NOT metabolized | Compound NOT metabolized | Compound metabolized | Compound metabolized | Compound metabolized | Compound metabolized | Compound NOT metabolized | Compound NOT metabolized | Compound NOT metabolized | Compound NOT metabolized | – | Compound NOT metabolized | – | Compound NOT metabolized | Compound NOT metabolized | Compound NOT metabolized | Compound NOT metabolized |
| COc1cc2nc(N3CCN(C(=O)C4CCCO4)CC3)nc(N)c2cc1OC (stereo not given) [TERAZOSIN] | Compound NOT metabolized | Compound NOT metabolized | Compound NOT metabolized | Compound NOT metabolized | Compound NOT metabolized | Compound NOT metabolized | Compound metabolized | – | Compound NOT metabolized | Compound metabolized | Compound NOT metabolized | Compound NOT metabolized | Compound NOT metabolized | Compound metabolized | Compound NOT metabolized | Compound NOT metabolized | Compound NOT metabolized | Compound metabolized | Compound NOT metabolized | Compound NOT metabolized |
